Source: patent US12441733B2, “Substituted 2,4-dioxotetrahydropyrimidines as intermediates in the synthesis of bruton's tyrosine kinase inhibitors” (Novartis AG, priority 2018, dated 2025)

Biological target: T1, BTK-GFP (Homo sapiens, UniProt Q06187+Q96SW2)
T1 construct: expressed in transfected cells; host or cells: HEK293A (Invitrogen R70507), lentiviral transduction with pLenti6-BTK-GFP-Ires-RFP, blasticidin selection
Assay: BTK-GFP protein abundance flow cytometry assay in HEK293A cells
Format: cell-based
Conditions: HEK293A BTK-GFP-iresRFP cells, 24 h; for DC50: GFP signal by flow cytometry, concentration at which 50% maximal degradation was observed; for BTK deg Amax: % protein remaining at the concentration at which maximum degradation is seen
Summary of the method: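 HEK293A cells stably expressing bicistronic BTK-GFP-IRES-RFP (C-terminal GFP tag) via lentiviral vector. Degradation read by flow cytometry as loss of GFP signal after degrader treatment. DC50 is concentration giving 50% maximal degradation; Amax is % protein remaining at maximal degradation.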

T1 sequence (Q06187 whole entry): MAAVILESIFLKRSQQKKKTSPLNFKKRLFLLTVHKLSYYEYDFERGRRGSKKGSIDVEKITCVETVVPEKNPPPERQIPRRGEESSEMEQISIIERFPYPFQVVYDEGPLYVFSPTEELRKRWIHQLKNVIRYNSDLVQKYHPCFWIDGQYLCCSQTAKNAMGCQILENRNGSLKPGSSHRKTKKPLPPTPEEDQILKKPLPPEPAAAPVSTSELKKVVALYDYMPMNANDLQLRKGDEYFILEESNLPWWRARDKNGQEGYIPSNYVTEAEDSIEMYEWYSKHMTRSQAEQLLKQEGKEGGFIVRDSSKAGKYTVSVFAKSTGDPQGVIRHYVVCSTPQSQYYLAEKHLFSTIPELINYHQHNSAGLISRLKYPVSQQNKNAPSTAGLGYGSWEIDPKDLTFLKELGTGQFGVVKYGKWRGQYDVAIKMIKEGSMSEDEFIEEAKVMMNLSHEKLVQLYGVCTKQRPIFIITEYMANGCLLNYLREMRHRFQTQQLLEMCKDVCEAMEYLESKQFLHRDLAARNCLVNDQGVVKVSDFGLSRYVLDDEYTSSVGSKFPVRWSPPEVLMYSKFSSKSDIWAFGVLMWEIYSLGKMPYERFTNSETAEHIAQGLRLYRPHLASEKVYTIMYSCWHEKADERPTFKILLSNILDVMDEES
T1 sequence (Q96SW2 whole entry): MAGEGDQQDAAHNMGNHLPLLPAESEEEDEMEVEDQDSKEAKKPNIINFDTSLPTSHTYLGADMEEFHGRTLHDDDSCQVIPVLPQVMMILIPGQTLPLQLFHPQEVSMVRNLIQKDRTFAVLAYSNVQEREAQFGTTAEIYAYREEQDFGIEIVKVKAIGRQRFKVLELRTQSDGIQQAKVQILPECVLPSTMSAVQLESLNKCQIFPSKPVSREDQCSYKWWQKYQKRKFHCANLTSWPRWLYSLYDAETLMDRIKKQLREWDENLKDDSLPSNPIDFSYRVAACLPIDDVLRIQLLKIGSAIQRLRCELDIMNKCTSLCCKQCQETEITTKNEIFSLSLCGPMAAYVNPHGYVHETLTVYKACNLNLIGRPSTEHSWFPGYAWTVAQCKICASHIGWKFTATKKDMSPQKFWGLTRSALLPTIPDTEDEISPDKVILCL
T1 sequence (Q16531 whole entry partner): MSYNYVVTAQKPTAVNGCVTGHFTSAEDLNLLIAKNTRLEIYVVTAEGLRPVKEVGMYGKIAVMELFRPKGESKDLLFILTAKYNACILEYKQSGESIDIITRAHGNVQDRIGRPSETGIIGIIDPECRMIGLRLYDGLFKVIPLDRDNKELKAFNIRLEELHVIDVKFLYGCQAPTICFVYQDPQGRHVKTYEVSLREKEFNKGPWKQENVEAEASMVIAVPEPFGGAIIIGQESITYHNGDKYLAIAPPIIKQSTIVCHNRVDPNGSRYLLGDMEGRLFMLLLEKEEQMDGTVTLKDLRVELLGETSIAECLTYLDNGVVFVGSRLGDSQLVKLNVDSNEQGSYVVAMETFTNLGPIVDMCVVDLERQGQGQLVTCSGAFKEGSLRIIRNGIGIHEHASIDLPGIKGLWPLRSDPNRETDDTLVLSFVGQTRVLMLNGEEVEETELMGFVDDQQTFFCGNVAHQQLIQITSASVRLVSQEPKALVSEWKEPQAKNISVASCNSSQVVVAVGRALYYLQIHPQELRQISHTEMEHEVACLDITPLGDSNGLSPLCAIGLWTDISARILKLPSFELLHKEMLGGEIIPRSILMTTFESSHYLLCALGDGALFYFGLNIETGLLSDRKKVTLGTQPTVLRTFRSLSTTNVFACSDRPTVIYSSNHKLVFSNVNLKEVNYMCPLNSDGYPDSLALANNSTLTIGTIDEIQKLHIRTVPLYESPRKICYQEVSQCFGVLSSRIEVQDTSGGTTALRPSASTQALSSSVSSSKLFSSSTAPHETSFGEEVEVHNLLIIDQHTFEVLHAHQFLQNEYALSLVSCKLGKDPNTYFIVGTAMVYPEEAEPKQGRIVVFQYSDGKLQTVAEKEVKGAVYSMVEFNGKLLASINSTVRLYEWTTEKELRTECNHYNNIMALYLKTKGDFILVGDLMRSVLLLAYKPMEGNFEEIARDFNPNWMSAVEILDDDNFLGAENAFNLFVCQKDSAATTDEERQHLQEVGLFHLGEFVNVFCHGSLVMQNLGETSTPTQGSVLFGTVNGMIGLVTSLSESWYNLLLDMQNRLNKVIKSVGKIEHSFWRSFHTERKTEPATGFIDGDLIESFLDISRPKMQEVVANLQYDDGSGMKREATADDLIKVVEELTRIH

Row | DC50 [nM] | BTK deg Amax [%] | Structure (SMILES)
1 | 235 | 48.4 | COc1ccc(C(=O)NCCN2CCC3(CC2)CCN(Cc2ccc(-c4cc5c(-c6cc(F)cc(NC(=O)c7ccc(C(C)(C)O)cc7F)c6C)ncnc5[nH]4)cc2)CC3)cc1N1CCC(=O)NC1=O [Compound 44, N-(3-(6-(4-((9-(2-(3-(2,4-dioxotetrahydropyrimidin-1(2H)-yl)-4-methoxybenzamido)ethyl)-3,9-diazaspiro[5.5]undecan-3-yl)methyl)phenyl)-7H-pyrrolo[2,3-d]pyrimidin-4-yl)-5-fluoro-2-methylphenyl)-2-fluoro-4-(2-hydroxypropan-2-yl)benzamide]
2 | 23.7 | 6.5 | COc1ccc(C(=O)N2CCN(C(=O)N3CCN(Cc4ccc(-c5cc6c(-c7cc(F)cc(NC(=O)c8ccc(C(C)(C)O)cc8F)c7C)ncnc6[nH]5)cc4)CC3)CC2)cc1N1CCC(=O)NC1=O [Compound 22, N-(3-(6-(4-((4-(4-(3-(2,4-Dioxotetrahydropyrimidin-1(2H)-yl)-4-methoxybenzoyl)piperazine-1-carbonyl)piperazin-1-yl)methyl)phenyl)-7H-pyrrolo[2,3-d]pyrimidin-4-yl)-5-fluoro-2-methylphenyl)-2-fluoro-4-(2-hydroxypropan-2-yl)benzamide]
3 | 3.8 | 11.7 | Cc1c(NC(=O)c2ccc(C(C)(C)O)cc2F)cc(F)cc1-c1ncnc2[nH]c(-c3ccc(CN4CCC5(CC4)CCN(C(=O)c4ccc(F)c(N6CCC(=O)NC6=O)c4)CC5)cc3)cc12 [Compound 14, N-(3-(6-(4-((9-(3-(2,4-Dioxotetrahydropyrimidin-1(2H)-yl)-4-fluorobenzoyl)-3,9-diazaspiro[5.5]undecan-3-yl)methyl)phenyl)-7H-pyrrolo[2.3-d]pyrimidin-4-yl)-5-fluoro-2-methylphenyl)-2-fluoro-4-(2-hydroxypropan-2-yl)benzamide]
4 | 2.6 | 5.5 | COc1ccc(C(=O)N2CCC(OC3CCN(Cc4ccc(-c5cc6c(-c7cc(F)cc(NC(=O)c8ccc(C(C)(C)O)cc8F)c7C)ncnc6[nH]5)cc4)CC3)CC2)cc1N1CCC(=O)NC1=O [Compound 8, N-(3-(6-(4-((4-((1-(3-(2,4-dioxotetrahydropyrimidin-1(2H)-yl)-4-methoxybenzoyl)piperidin-4-yl)oxyl)piperidin-1-yl)methyl)phenyl)-7H-pyrrolo[2,3-d]pyrimidin-4-yl)-5-fluoro-2-methylphenyl)-2-fluoro-4-(2-hydroxypropan-2-yl)benzamide]
5 | 0.6 | 2.7 | COc1ccc(C(=O)N2CCC(CN3CCC(Oc4ccc(-c5cc6c(-c7cc(F)cc(NC(=O)c8ccc(C(C)(C)O)cc8F)c7C)ncnc6[nH]5)cc4)CC3)CC2)cc1N1CCC(=O)NC1=O [Compound 19, N-(3-(6-(4-((1-((1-(3-(2,4-Dioxotetrahydropyrimidin-1(2H)-yl)-4-methoxybenzoyl)piperidin-4-yl)methyl)piperidin-4-yl)oxyl)phenyl)-7H-pyrrolo[2,3-d]pyrimidin-4-yl)-5-fluoro-2-methylphenyl)-2-fluoro-4-(2-hydroxypropan-2-yl)benzamide]
6 | 29.9 | 40.6 | Cc1c(NC(=O)c2ccc(C(C)(C)O)cc2F)cc(F)cc1-c1ncnc2[nH]c(-c3ccc(CCN4CCC5(CC4)CCN(C(=O)c4cccc(N6CCC(=O)NC6=O)c4)CC5)cc3)cc12 [Compound 12, N-(3-(6-(4-(2-(9-(3-(2,4-Dioxotetrahydropyrimidin-1(2H)-yl)benzoyl)-3,9-diazaspiro[5,5]undecan-3-yl)ethyl)phenyl)-7H-pyrrolo[2,3-d]pyrimidin-4-yl)-5-fluoro-2-methylphenyl)-2-fluoro-4-(2-hydroxypropan-2-yl)benzamide]
7 | 2.5 | 3.4 | COc1ccc(C(=O)N2CCC3(CCN(CCc4ccc(-c5cc6c(-c7cc(F)cc(NC(=O)c8ccc(C(C)(C)O)cc8F)c7C)ncnc6[nH]5)cc4)CC3)CC2)cc1N1CCC(=O)NC1=O [Compound 31, N-(3-(6-(4-(2-(9-(3-(2,4-Dioxotetrahydropyrimidin-1(2H)-yl)-4-methoxybenzoyl)-3,9-diazaspiro[5.5]undecan-3-yl)ethyl)phenyl)-7H-pyrrolo[2,3-d]pyrimidin-4-yl)-5-fluoro-2-methylphenyl)-2-fluoro-4-(2-hydroxypropan-2-yl)benzamide]
8 | 53.2 | 4.6 | COc1ccc(C(=O)N2CCN(CCCCNCc3ccc(-c4cc5c(-c6cc(F)cc(NC(=O)c7ccc(C(C)(C)O)cc7F)c6C)ncnc5[nH]4)cc3)CC2)cc1N1CCC(=O)NC1=O [Compound 40, N-(3-(6-(4-(((4-(4-(3-(2,4-dioxotetrahydropyrimidin-1(2H)-yl)-4-methoxybenzoyl)piperazin-1-yl)butyl)amino)methyl)phenyl)-7H-pyrrolo[2,3-d]pyrimidin-4-yl)-5-fluoro-2-methylphenyl)-2-fluoro-4-(2-hydroxypropan-2-yl)benzamide]
9 | 47.1 | 5.4 | Cc1ccc(C(=O)N(C)CCCCCNCc2ccc(-c3cc4c(-c5cc(F)cc(NC(=O)c6ccc(C(C)(C)O)cc6F)c5C)ncnc4[nH]3)cc2)cc1N1CCC(=O)NC1=O [Compound 30, 3-(2,4-Dioxotetrahydropyrimidin-1(2H)-yl)-N-(5-((4-(4-(5-fluoro-3-(2-fluoro-4-(2-hydroxypropan-2-yl)benzamido)-2-methylphenyl)-7H-pyrrolo[2,3-d]pyrimidin-6-yl)benzyl)amino)pentyl)-N,4-dimethylbenzamide]
10 | 3.9 | 1.7 | COc1ccc(C(=O)N2CCC(OC3CCN(CCc4ccc(-c5cc6c(-c7cc(F)cc(NC(=O)c8ccc(C(C)(C)O)cc8F)c7C)ncnc6[nH]5)cc4)CC3)CC2)cc1N1CCC(=O)NC1=O [Compound 34, N-(3-(6-(4-(2-(4-((1-(3-(2,4-Dioxotetrahydropyrimidin-1(2H)-yl)-4-methoxybenzoyl)piperidin-4-yl)oxyl)piperidin-1-yl)ethyl)phenyl)-7H-pyrrolo[2,3-d]pyrimidin-4-yl)-5-fluoro-2-methylphenyl)-2-fluoro-4-(2-hydroxypropan-2-yl)benzamide]
11 | 2.2 | 6.7 | Cc1c(NC(=O)c2ccc(C(C)(C)O)cc2F)cc(F)cc1-c1ncnc2[nH]c(-c3ccc(CCN4CCC5(CC4)CCN(C(=O)c4ccc(F)c(N6CCC(=O)NC6=O)c4)CC5)cc3)cc12 [Compound 47, N-(3-(6-(4-(2-(9-(3-(2,4-dioxotetrahydropyrimidin-1(2H)-yl)-4-fluorobenzoyl)-3,9-diazaspiro[5.5]undecan-3-yl)ethyl)phenyl)-7H-pyrrolo[2,3-d]pyrimidin-4-yl)-5-fluoro-2-methylphenyl)-2-fluoro-4-(2-hydroxypropan-2-yl)benzamide]
12 | 3.7 | 7.8 | CCOc1ccc(C(=O)N2CCC3(CCN(Cc4ccc(-c5cc6c(-c7cc(F)cc(NC(=O)c8ccc(C(C)(C)O)cc8F)c7C)ncnc6[nH]5)cc4)CC3)CC2)cc1N1CCC(=O)NC1=O [Compound 4, N-(3-(6-(4-((9-(3-(2,4-Dioxotetrahydropyrimidin-1(2H)-yl)-4-ethoxybenzoyl)-3,9-diazaspiro[5.5]undecan-3-yl)methyl)phenyl)-7H-pyrrolo[2,3-d]pyrimidin-4-yl)-5-fluoro-2-methylphenyl)-2-fluoro-4-(2-hydroxypropan-2-yl)benzamide]
13 | 1.5 | 4.1 | Cc1ccc(C(=O)N2CCC3(CCN(Cc4ccc(-c5cc6c(-c7cc(F)cc(NC(=O)c8ccc(C(C)(C)O)cc8F)c7C)ncnc6[nH]5)cc4)CC3)CC2)cc1N1CCC(=O)NC1=O [Compound 27, N-(3-(6-(4-((9-(3-(2,4-Dioxotetrahydropyrimidin-1(2H)-yl)-4-methylbenzoyl)-3,9-diazaspiro[5.5]undecan-3-yl)methyl)phenyl)-7H-pyrrolo[2,3-d]pyrimidin-4-yl)-5-fluoro-2-methylphenyl)-2-fluoro-4-(2-hydroxypropan-2-yl)benzamide]
